Here are results for 20 compounds from patent US9796711B2, “Substituted pyrazolo[3,4-b]pyridin-6-carboxylic acids and method of use” (AbbVie S.àr.l., priority 2015, dated 2017).

For assay [1], the target named is T1, ΔF508-CFTR (Homo sapiens, UniProt P13569, DEL508-508).
T1 construct: host or cells: CFBE41o-, doxycycline-inducible
Briefly: CFTR cell surface levels using HRP-tagged ΔF508-CFTR expressing CFBE cells, in the presence of a co-corrector. As to conditions: HRP-tagged ΔF508-CFTR expressing CFBE cells, in the presence of 3 μM co-corrector; for EC50: read-out: EC50. Format: cell-based. The method in brief: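 Cells were seeded with 0.5 μg/mL doxycycline and held 68 h at 37 °C. Test compounds plus 3 μM co-corrector (final 0.1% DMSO) were then added for 20 h at 33 °C. Washed cells received HRP substrate, and luminescence was normalized between DMSO and 3 μM co-corrector controls.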

Assay [2] deals with T1, ΔF508-CFTR. In words: CFTR cell surface levels using HRP-tagged ΔF508-CFTR expressing CFBE cells, intrinsic corrector capacity. Format: cell-based. As to conditions: for EC50: read-out: EC50. The method in brief:
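Here the cells express ΔF508-CFTR with horseradish peroxidase inserted in extracellular loop 4, so only rescued channel at the surface gives luminescent signal. Compounds act on their own, 20 h at the reduced temperature of 33 °C; values are percent activity relative to DMSO and a 3 μM corrector.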

Setting [3] is: HRP-tagged ΔF508-CFTR expressing CFBE cells, intrinsic corrector capacity (no co-corrector), 33° C., 20 hours.
[4] abbreviates: HRP-tagged ΔF508-CFTR CFBE41o- cells, compounds alone (intrinsic corrector capacity), 20 hours at 33° C., positive control 3 μM corrector.
Setting [5] is: HRP-tagged ΔF508-CFTR CFBE41o- cells, compounds alone (intrinsic corrector capacity), 20 hours at 33° C.

T1 sequence (P13569 with tags, fused parts or gaps DEL508-508): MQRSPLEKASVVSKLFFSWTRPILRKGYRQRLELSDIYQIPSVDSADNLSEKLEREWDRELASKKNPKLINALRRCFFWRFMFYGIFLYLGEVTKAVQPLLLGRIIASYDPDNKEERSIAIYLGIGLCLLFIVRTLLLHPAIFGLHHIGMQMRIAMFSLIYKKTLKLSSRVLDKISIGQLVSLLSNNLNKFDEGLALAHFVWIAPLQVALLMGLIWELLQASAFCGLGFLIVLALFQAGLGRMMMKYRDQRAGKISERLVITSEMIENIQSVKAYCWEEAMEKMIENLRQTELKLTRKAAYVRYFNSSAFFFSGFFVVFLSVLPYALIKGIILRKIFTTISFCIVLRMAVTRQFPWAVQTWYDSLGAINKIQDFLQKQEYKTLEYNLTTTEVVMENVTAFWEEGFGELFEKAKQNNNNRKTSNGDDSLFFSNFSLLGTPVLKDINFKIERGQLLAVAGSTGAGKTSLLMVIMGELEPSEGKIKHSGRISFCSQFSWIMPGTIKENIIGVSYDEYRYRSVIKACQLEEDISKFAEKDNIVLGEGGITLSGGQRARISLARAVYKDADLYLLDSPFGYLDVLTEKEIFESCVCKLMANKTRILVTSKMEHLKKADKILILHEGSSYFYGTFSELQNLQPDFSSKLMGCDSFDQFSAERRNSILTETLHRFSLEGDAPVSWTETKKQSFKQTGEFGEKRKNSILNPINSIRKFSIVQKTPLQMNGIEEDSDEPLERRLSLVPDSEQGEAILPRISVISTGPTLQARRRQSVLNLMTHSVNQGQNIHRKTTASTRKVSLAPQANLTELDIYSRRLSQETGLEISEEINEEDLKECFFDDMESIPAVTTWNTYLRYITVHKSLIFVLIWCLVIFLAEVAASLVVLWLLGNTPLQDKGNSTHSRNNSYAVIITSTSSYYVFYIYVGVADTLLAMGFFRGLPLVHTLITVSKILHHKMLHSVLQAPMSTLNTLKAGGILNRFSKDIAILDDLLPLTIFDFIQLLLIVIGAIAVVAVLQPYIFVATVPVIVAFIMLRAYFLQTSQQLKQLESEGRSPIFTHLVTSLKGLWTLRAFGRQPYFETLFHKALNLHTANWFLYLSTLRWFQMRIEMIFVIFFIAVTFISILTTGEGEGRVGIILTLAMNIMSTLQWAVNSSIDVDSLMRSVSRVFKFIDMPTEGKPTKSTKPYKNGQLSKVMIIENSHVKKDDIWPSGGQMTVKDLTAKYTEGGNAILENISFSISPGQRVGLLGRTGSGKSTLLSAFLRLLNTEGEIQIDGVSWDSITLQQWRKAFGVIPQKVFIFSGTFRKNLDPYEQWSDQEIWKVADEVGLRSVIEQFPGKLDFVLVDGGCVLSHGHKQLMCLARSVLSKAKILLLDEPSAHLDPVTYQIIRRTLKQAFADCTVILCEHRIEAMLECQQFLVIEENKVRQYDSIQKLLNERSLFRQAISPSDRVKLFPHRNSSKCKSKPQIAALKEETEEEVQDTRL

For the compound `O=C(O)c1cc(OCCN2CCS(=O)(=O)CC2)c2c(C3CCC3)nn(-c3ccccc3)c2n1` [compound 436, 3-cyclobutyl-4-[2-(1,1-dioxo-lλ^6,4-thiazinan-4-yl)ethoxy]-1-phenyl-1H-pyrazolo[3,4-b]pyridine-6-carboxylic acid], at ΔF508-CFTR [1], the “% Activation” value is recorded as 157.15% and the concentration giving a half-maximal response (EC50) was found to be 2510 nM. Moreover, at ΔF508-CFTR [2] (setting [3]), the “% Activation” value is on record as 24.16% and the EC50 amounted to 4170 nM.

As to `O=C(O)c1cc(N2CC(N3CCCCC3)C2)c2c(C3CCC3)nn(-c3ccccc3)c2n1` [compound 466, 3-cyclobutyl-1-phenyl-4-[3-(piperidin-1-yl)azetidin-1-yl]-1H-pyrazolo[3,4-b]pyridine-6-carboxylic acid], the “% Activation” value on ΔF508-CFTR [1] is reported as 271.1%; at ΔF508-CFTR [2] (setting [3]), 116.25%. The concentration for a half-maximal effect (EC50) at ΔF508-CFTR [1] was determined as 1290 nM; at ΔF508-CFTR [2] (setting [3]), 2330 nM.

Consider `COC1CN(C2CCN(c3cc(C(=O)O)nc4c3c(C3CCC3)nn4-c3ccc(F)cc3)CC2)C1` [compound 873, 3-cyclobutyl-1-(4-fluorophenyl)-4-[4-(3-methoxyazetidin-1-yl)piperidin-1-yl]-1H-pyrazolo[3,4-b]pyridine-6-carboxylic acid], for which, at ΔF508-CFTR [1], the “% Activation” value stood at 332.45% and the concentration for a half-maximal effect (EC50) was 1850 nM. For the same compound, at ΔF508-CFTR [2] (setting [3]), the “% Activation” value is given as 139.8% and the EC50 was determined as 3340 nM.

For `CN1[C@@H]2CC[C@H]1C[C@@H](Oc1cc(C(=O)O)nc3c1c(C1CCC1)nn3-c1ccccc1)C2` [compound 621, 3-cyclobutyl-4-{[(3-endo)-8-methyl-8-azabicyclo[3.2.1]octan-3-yl]oxy}-1-phenyl-1H-pyrazolo[3,4-b]pyridine-6-carboxylic acid], at ΔF508-CFTR [1], the “% Activation” value amounted to 294.75% and the half-maximal effective concentration (EC50) came out at 3140 nM. Besides, on ΔF508-CFTR [2] (setting [3]), the “% Activation” value is listed as 89.46% and the EC50 was 3330 nM.

In the case of `O=C(O)c1cc(N2CCC(N3CCOCC3)CC2)c2c(C3CCC3)nn(-c3ccc4c(c3)CC4)c2n1` [compound 911, 1-(bicyclo[4.2.0]octa-1,3,5-trien-3-yl)-3-cyclobutyl-4-[4-(morpholin-4-yl)piperidin-1-yl]-1H-pyrazolo[3,4-b]pyridine-6-carboxylic acid], at ΔF508-CFTR [1], the “% Activation” value is reported as 405.9% and the EC50 worked out at 74 nM. For the same compound, at ΔF508-CFTR [2] (setting [3]), the “% Activation” value was 222.45% and the EC50 came to 190 nM.

For the compound `O=CN1CCN(CC2CCN(c3cc(C(=O)O)nc4c3c(C3CCC3)nn4-c3ccccc3)CC2)CC1` [compound 843, 3-cyclobutyl-4-{4-[(4-formylpiperazin-1-yl)methyl]piperidin-1-yl}-1-phenyl-1H-pyrazolo[3,4-b]pyridine-6-carboxylic acid], at ΔF508-CFTR [1], the “% Activation” value was 499.3% and the concentration giving a half-maximal response (EC50) is 207 nM. At ΔF508-CFTR [2] (setting [3]), the “% Activation” value amounted to 264.2% and the EC50 amounted to 366 nM.

With `CS(=O)(=O)C1(COc2cc(C(=O)O)nc3c2c(C2CCC2)nn3-c2ccccc2)CCOCC1` [compound 627, 3-cyclobutyl-4-{[4-(methanesulfonyl)oxan-4-yl]methoxy}-1-phenyl-1H-pyrazolo[3,4-b]pyridine-6-carboxylic acid], on ΔF508-CFTR [1], the “% Activation” value is 126.25% and the concentration giving a half-maximal response (EC50) was > 10000 nM. Further, on ΔF508-CFTR [2] (setting [3]), the “% Activation” value is 9.221% and the EC50 is > 10000 nM.

For the compound `CC(C)c1nn(-c2cccc(N(C)C)c2)c2nc(C(=O)O)cc(-c3cnc(N4CCC(C#N)CC4)nc3)c12` [compound 199, 4-[2-(4-cyanopiperidin-1-yl)pyrimidin-5-yl]-1-[3-(dimethylamino)phenyl]-3-(propan-2-yl)-1H-pyrazolo[3,4-b]pyridine-6-carboxylic acid], the “% Activation” value at ΔF508-CFTR [1] is 602.4%; on ΔF508-CFTR [2] (setting [4]), 356.9%. Further, the EC50 stood at 917 nM on ΔF508-CFTR [1] and 1220 nM at ΔF508-CFTR [2] (setting [5]).

With `Cc1nn(-c2ccccc2)c2nc(C(=O)O)cc(O[C@H]3CCN(C)C3)c12` [compound 337, 3-methyl-4-{[(3S)-1-methylpyrrolidin-3-yl]oxy}-1-phenyl-1H-pyrazolo[3,4-b]pyridine-6-carboxylic acid], the entries for the “% Activation” value on ΔF508-CFTR [1] and at ΔF508-CFTR [2] (setting [4]) were 139.85% and 15.48%, respectively. The 50% effective concentration (EC50) was found to be 4170 nM at ΔF508-CFTR [1] and 7500 nM at ΔF508-CFTR [2] (setting [5]).

For the compound `O=C(O)c1cc(N2C[C@@H](F)C[C@H]2CO)c2c(C3CCC3)nn(-c3ccccc3)c2n1` [compound 507, 3-cyclobutyl-4-[(2S,4S)-4-fluoro-2-(hydroxymethyl)pyrrolidin-1-yl]-1-phenyl-1H-pyrazolo[3,4-b]pyridine-6-carboxylic acid], at ΔF508-CFTR [1], the “% Activation” value was 218.3% and the EC50 amounted to 2520 nM. For the same compound, on ΔF508-CFTR [2] (setting [3]), the “% Activation” value was determined as 132.8% and the EC50 came to 2170 nM.

As to `O=C(O)c1cc(N2CCC(N3CCOCC3)CC2)c2c(C3CCC3)nn(-c3cccc(F)c3)c2n1` [compound 825, 3-cyclobutyl-1-(3-fluorophenyl)-4-[4-(morpholin-4-yl)piperidin-1-yl]-1H-pyrazolo[3,4-b]pyridine-6-carboxylic acid], the “% Activation” value at ΔF508-CFTR [1] is given as 455.85%; at ΔF508-CFTR [2] (setting [3]), 289%. Besides, the values for the 50% effective concentration (EC50) at ΔF508-CFTR [1] and at ΔF508-CFTR [2] (setting [3]) were 144 nM and 207 nM, respectively.

As to `Cc1nn(-c2ccccc2)c2nc(C(=O)O)cc(N3CCC(F)CC3)c12` [compound 297, 4-(4-fluoropiperidin-1-yl)-3-methyl-1-phenyl-1H-pyrazolo[3,4-b]pyridine-6-carboxylic acid], the “% Activation” value is 184.07% at ΔF508-CFTR [1] and 50.78% at ΔF508-CFTR [2] (setting [4]). Moreover, the EC50 worked out at 3340 nM at ΔF508-CFTR [1] and 2230 nM at ΔF508-CFTR [2] (setting [5]).

For `O=C(O)c1cc(OCCCN2CCOCC2)c2c(C3CCC3)nn(-c3ccccc3)c2n1` [compound 487, 3-cyclobutyl-4-[3-(morpholin-4-yl)propoxy]-1-phenyl-1H-pyrazolo[3,4-b]pyridine-6-carboxylic acid], the “% Activation” value on ΔF508-CFTR [1] is on record as 316.5%; at ΔF508-CFTR [2] (setting [3]), 142.7%. Moreover, the EC50 on ΔF508-CFTR [1] was found to be 491 nM; on ΔF508-CFTR [2] (setting [3]), 835 nM.

Consider `Cc1nn(-c2ccccc2)c2nc(C(=O)O)cc(-c3ccc(N4C[C@@H](O)[C@H](O)C4)cc3)c12` [compound 116, 4-{4-[(3R,4R)-3,4-dihydroxypyrrolidin-1-yl]phenyl}-3-methyl-1-phenyl-1H-pyrazolo[3,4-b]pyridine-6-carboxylic acid], for which the entries for the “% Activation” value on ΔF508-CFTR [1] and on ΔF508-CFTR [2] (setting [4]) were 262.7% and 81.72%, respectively. The concentration giving a half-maximal response (EC50) on ΔF508-CFTR [1] and at ΔF508-CFTR [2] (setting [5]) was 3340 nM each time.

As for `CCN(CC)C1CCN(c2cc(C(=O)O)nc3c2c(C(C)C)nn3-c2ccc(F)cc2)CC1` [compound 787, 4-[4-(diethylamino)piperidin-1-yl]-1-(4-fluorophenyl)-3-(propan-2-yl)-1H-pyrazolo[3,4-b]pyridine-6-carboxylic acid], the “% Activation” value is 309.9% on ΔF508-CFTR [1] and 121.5% at ΔF508-CFTR [2] (setting [3]). The concentration for a half-maximal effect (EC50) on ΔF508-CFTR [1] was 1300 nM; on ΔF508-CFTR [2] (setting [3]) it was 771 nM.

Regarding `CC(=O)N1CCN(c2cc(C(=O)O)nc3c2c(C(C)C)nn3-c2ccc(F)cc2)CC1` [compound 771, 4-(4-acetylpiperazin-1-yl)-1-(4-fluorophenyl)-3-(propan-2-yl)-1H-pyrazolo[3,4-b]pyridine-6-carboxylic acid], at ΔF508-CFTR [1], the “% Activation” value amounted to 290.8% and the EC50 was 1670 nM. In addition, on ΔF508-CFTR [2] (setting [3]), the “% Activation” value was found to be 94.91% and the 50% effective concentration (EC50) stood at 1670 nM.

For the compound `CC(C)c1nn(C2CCCCC2)c2nc(C(=O)O)cc(-c3ccc(N4CCOCC4)cc3)c12` [compound 54, 1-cyclohexyl-4-[4-(morpholin-4-yl)phenyl]-3-(propan-2-yl)-1H-pyrazolo[3,4-b]pyridine-6-carboxylic acid], the entries for the “% Activation” value on ΔF508-CFTR [1] and at ΔF508-CFTR [2] (setting [4]) were 392.6% and 167.9%, respectively. The EC50 on ΔF508-CFTR [1] came out at 376 nM; at ΔF508-CFTR [2] (setting [5]), 763 nM.

On to `CC(=O)N1CC[C@@H]2CN(c3cc(C(=O)O)nc4c3c(C3CCC3)nn4-c3ccccc3)CC[C@@H]21` (single isomer, unassigned) [compound 587], for which the “% Activation” value is 360.33% at ΔF508-CFTR [1] and 149.5% on ΔF508-CFTR [2] (setting [3]). For the same compound, the 50% effective concentration (EC50) at ΔF508-CFTR [1] was determined as 2420 nM; at ΔF508-CFTR [2] (setting [3]), 3330 nM.

`CC1(C)CN(C2CCN(c3cc(C(=O)O)nc4c3c(C3CCC3)nn4-c3ccc(F)cc3)CC2)CCO1` [compound 876, 3-cyclobutyl-4-[4-(2,2-dimethylmorpholin-4-yl)piperidin-1-yl]-1-(4-fluorophenyl)-1H-pyrazolo[3,4-b]pyridine-6-carboxylic acid]: on ΔF508-CFTR [1], the “% Activation” value was determined as 562.35% and the half-maximal effective concentration (EC50) worked out at 267 nM. In addition, at ΔF508-CFTR [2] (setting [3]), the “% Activation” value stood at 324.4% and the EC50 is 301 nM.

With `CC(C)c1nn(-c2ccnc(N3CCOCC3)c2)c2nc(C(=O)O)cc(-c3ccc(N4CCC(C#N)CC4)nc3)c12` [compound 437, 4-[6-(4-cyanopiperidin-1-yl)pyridin-3-yl]-1-[2-(morpholin-4-yl)pyridin-4-yl]-3-(propan-2-yl)-1H-pyrazolo[3,4-b]pyridine-6-carboxylic acid], on ΔF508-CFTR [1], the “% Activation” value was 419.53% and the EC50 stood at 795 nM. Further, at ΔF508-CFTR [2] (setting [3]), the “% Activation” value is 247.47% and the EC50 amounted to 1230 nM.
